Data as given in patent US11737999B2, “Amino acid compositions and methods for the treatment of post-acute sequelae of COVID-19” (AXCELLA HEALTH INC., priority 2021, dated 2023).

Key:
MCP1/CCL2 = MCP1/CCL2 secretion by ELISA in primary human hepatocytes with FFA + TNFα; format: cell-based
IL-6 [1] = assay: IL-6 cytokine secretion in primary human hepatic stellate cells stimulated with TNFα; format: cell-based; conditions: hepatic stellate cells, two donors
TNF-α = assay: LPS-induced TNF-α secretion in primary human monocyte-derived macrophages; conditions: for TNF-α Measurements Mean (baseline subtracted): 0.15 ng/mL LPS
MCP-1 = MCP-1 chemokine secretion in primary human hepatic stellate cells stimulated with TNFα; format: cell-based; conditions: hepatic stellate cells, two donors
IL-6 [2] = assay: LPS-induced IL-6 secretion in primary human monocyte-derived macrophages; conditions: for IL-6 Measurements, Mean: LPS, baseline subtracted values
Procollagen Iα1 = Procollagen Iα1 secretion (ELISA) in primary human hepatic stellate cells stimulated with TGFβ1; format: cell-based; conditions: hepatic stellate cells, three donors
Col1a1 = Col1a1 gene expression (RT-qPCR) in primary human hepatic stellate cells stimulated with TGFβ1; format: cell-based; conditions: for Col1a1 Fold Expression Relative to Control, Mean: single amino acid
[3] = Donor 2, Conc. 153 μM (baseline)
[4] = Donor 2, Conc. 749 μM (baseline)

Compound: CC(C)C[C@H](N)C(=O)O [Leucine, L-Leucine]
- MCP1 expression relative to Control, Mean (MCP1/CCL2; Donor 1, Conc. 153 μM): 5.92E−16
- MCP1 expression relative to Control, Mean (MCP1/CCL2; Donor 1, Conc. 3054 μM): 3.34
- MCP1 expression relative to Control, Mean (MCP1/CCL2; Donor 1, Conc. 7635 μM): 1.896
- MCP1 expression relative to Control, Mean (MCP1/CCL2; Donor 1, Conc. 15270 μM): −1.368
- MCP1 expression relative to Control, Mean (MCP1/CCL2; Donor 2, Conc. 153 μM): −4.7E−15
- MCP1 expression relative to Control, Mean (MCP1/CCL2; Donor 2, Conc. 3054 μM): 16.11
- MCP1 expression relative to Control, Mean (MCP1/CCL2; Donor 2, Conc. 7635 μM): −2.988
- MCP1 expression relative to Control, Mean (MCP1/CCL2; Donor 2, Conc. 15270 μM): −26.6436
- IL-6 secretion (summary in words) (IL-6 [1]): no significant effect on IL-6 secretion
- TNF-α Measurements Mean (baseline subtracted) (TNF-α; Donor 1, Conc. 3054 μM): 42.04
- TNF-α Measurements Mean (baseline subtracted) (TNF-α; Donor 1, Conc. 7635 μM): −23.04
- TNF-α Measurements Mean (baseline subtracted) (TNF-α; Donor 1, Conc. 15270 μM): −46.21
- LPS-induced TNF-α secretion (summary in words) (TNF-α; Donor 2): increased TNF-α secretion
- TNF-α Measurements Mean (baseline subtracted) (TNF-α; [3]): 0
- TNF-α Measurements Mean (baseline subtracted) (TNF-α; Donor 2, Conc. 3054 μM): 31.74
- TNF-α Measurements Mean (baseline subtracted) (TNF-α; Donor 2, Conc. 7635 μM): 41.98
- TNF-α Measurements Mean (baseline subtracted) (TNF-α; Donor 2, Conc. 15270 μM): 46.69
- MCP-1 secretion (summary in words) (MCP-1): no significant impact on MCP-1 secretion
- IL-6 Measurements, Mean (IL-6 [2]; Donor 1, Conc. 153 μM (baseline)): 0
- LPS-induced IL-6 secretion (summary in words) (IL-6 [2]; Donor 2): increased IL-6 secretion
- IL-6 Measurements, Mean (IL-6 [2]; [3]): 7.11E−15
- IL-6 Measurements, Mean (IL-6 [2]; Donor 2, Conc. 3054 μM): 29.61
- IL-6 Measurements, Mean (IL-6 [2]; Donor 2, Conc. 7635 μM): 30.46
- IL-6 Measurements, Mean (IL-6 [2]; Donor 2, Conc. 15270 μM): 47.6

Compound: N=C(N)NCCC[C@H](N)C(=O)O [Arginine, L-Arginine]
- MCP1/CCL2 secretion (summary in words) (MCP1/CCL2; primary human hepatocytes, two healthy donors): increased MCP1 secretion
- procollagen Iα1 secretion (summary in words) (Procollagen Iα1): significantly increased procollagen Iα1 secretion in two of three donors
- IL-6 secretion (summary in words) (IL-6 [1]): no significant effect on IL-6 secretion
- MCP-1 secretion (summary in words) (MCP-1): no significant impact on MCP-1 secretion
- Col1a1 gene expression (summary in words) (Col1a1; hepatic stellate cells, three donors): did not significantly change Col1a1 gene expression in any donor
- Col1a1 Fold Expression Relative to Control, Mean (Col1a1; second donor (Table 27), 1088 μM): 0.99 fold
- Col1a1 Fold Expression Relative to Control, Mean (Col1a1; second donor (Table 27), 2720 μM): 1.15 fold
- Col1a1 Fold Expression Relative to Control, Mean (Col1a1; second donor (Table 27), 5440 μM): 1.15 fold
- Col1a1 Fold Expression Relative to Control, Mean (Col1a1; second donor (Table 29), 1088 μM): 0.95 fold
- Col1a1 Fold Expression Relative to Control, Mean (Col1a1; second donor (Table 29), 2720 μM): 0.99 fold
- Col1a1 Fold Expression Relative to Control, Mean (Col1a1; second donor (Table 29), 5440 μM): 1.02 fold
- LPS-induced IL-6 secretion (summary in words) (IL-6 [2]; Donor 1): increased IL-6 secretion

Compound: NC(=O)CC[C@H](N)C(=O)O [Glutamine, L-Glutamine]
- MCP1 expression relative to Control, Mean (MCP1/CCL2; Donor 1, Conc. 749 μM): 0
- MCP1 expression relative to Control, Mean (MCP1/CCL2; Donor 1, Conc. 3747 μM): −0.8981
- MCP1 expression relative to Control, Mean (MCP1/CCL2; Donor 1, Conc. 11242 μM): −9.001
- MCP1 expression relative to Control, Mean (MCP1/CCL2; Donor 1, Conc. 22484 μM): −21.8392
- MCP1 expression relative to Control, Mean (MCP1/CCL2; Donor 2, Conc. 749 μM): 2.84E−14
- MCP1 expression relative to Control, Mean (MCP1/CCL2; Donor 2, Conc. 3747 μM): −45.0574
- MCP1 expression relative to Control, Mean (MCP1/CCL2; Donor 2, Conc. 11242 μM): −90.6558
- MCP1 expression relative to Control, Mean (MCP1/CCL2; Donor 2, Conc. 22484 μM): −138.873
- IL-6 secretion (summary in words) (IL-6 [1]): significantly reduced IL-6 secretion in both donors
- TNF-α Measurements Mean (baseline subtracted) (TNF-α; Donor 1, Conc. 3747 μM): −45.7
- TNF-α Measurements Mean (baseline subtracted) (TNF-α; Donor 1, Conc. 11242 μM): −65.24
- TNF-α Measurements Mean (baseline subtracted) (TNF-α; Donor 1, Conc. 22484 μM): −103.07
- LPS-induced TNF-α secretion (summary in words) (TNF-α; Donor 2): increased TNF-α secretion
- TNF-α Measurements Mean (baseline subtracted) (TNF-α; [4]): −9.5E−15
- TNF-α Measurements Mean (baseline subtracted) (TNF-α; Donor 2, Conc. 3747 μM): 9.338
- TNF-α Measurements Mean (baseline subtracted) (TNF-α; Donor 2, Conc. 11242 μM): 20.04
- TNF-α Measurements Mean (baseline subtracted) (TNF-α; Donor 2, Conc. 22484 μM): 11.5
- LPS-induced TNF-α secretion (summary in words) (TNF-α; Donor 3): increased TNF-α secretion
- TNF-α Measurements Mean (baseline subtracted) (TNF-α; Donor 3, Conc. 749 μM (baseline)): 0
- TNF-α Measurements Mean (baseline subtracted) (TNF-α; Donor 3, Conc. 3747 μM): 1.936
- TNF-α Measurements Mean (baseline subtracted) (TNF-α; Donor 3, Conc. 11242 μM): 18
- TNF-α Measurements Mean (baseline subtracted) (TNF-α; Donor 3, Conc. 22484 μM): 29.14
- MCP-1 secretion (summary in words) (MCP-1): reduced MCP1 secretion in both donors but was only statistically significant in one of two donors
- LPS-induced IL-6 secretion (summary in words) (IL-6 [2]; Donor 1): increased IL-6 secretion
- IL-6 Measurements, Mean (IL-6 [2]; Donor 1, Conc. 749 μM (baseline)): 0
- LPS-induced IL-6 secretion (summary in words) (IL-6 [2]; Donor 2): increased IL-6 secretion
- IL-6 Measurements, Mean (IL-6 [2]; [4]): 2.37E−15
- IL-6 Measurements, Mean (IL-6 [2]; Donor 2, Conc. 3747 μM): 22.52
- IL-6 Measurements, Mean (IL-6 [2]; Donor 2, Conc. 11242 μM): 63.31
- IL-6 Measurements, Mean (IL-6 [2]; Donor 2, Conc. 22484 μM): 34.39
- LPS-induced IL-6 secretion (summary in words) (IL-6 [2]; Donor 3): significantly increased IL-6 secretion
